Assay results: patent US12714698B2, “Compositions and methods for treating or preventing dermal disorders” (Drexel University, priority 2015, dated 2026)
Read-outs that look alike come from different tables or passages of the source.

Key:
[1] = tested on: ribosomal S6 protein and MDM2; assay: Immunoblot of ribosomal S6 protein and MDM2 phosphorylation (mTORC1/p70S6K signaling); assay type: cell-based, human
Protocol: (§1) Cell culture experiments utilizing NRTIs were of the following design. Cultures of either human lung or cardiac fibroblasts were cultivated according to standard culture protocols for these cells (Cristofalo, et al., Journal of Tissue Culture Methods 1980, 6:117-121). Parallel sets of cultures were maintained in normal growth media or in normal growth media with the addition of 1 nM rapamycin. Cultures were maintained with 1 nM rapamycin (Enzo Biologicals) for two weeks before exposure to NRTIs. Cell cultures were exposed to NRTIs at indicated concentrations in individual experiments (generally 10-20 μg/ml) for 7 days, with a change of media and fresh NRTIs at day 4. Mitochondrial measurements, bioanalyzer measurements, immunoblotting for protein expression and phosphorylation status, and assays for senescence were performed at the end of this 7-day period.
(§2) Cell culture reagents were from Cellgro, unless indicated. WI-38 fetal-lung primary human fibroblasts or human cardiac fibroblasts were grown in MEM supplemented with 10% fetal bovine serum, 1% L-glutamine, MEM vitamins, and MEM non-essential amino acids. Cells were maintained in a 37° C. in 5% CO2 incubator. For treatment studies, cells were treated with 1 nM rapamycin (Enzo Biologicals) for two weeks before treatment with NRTIs. Cells were maintained by trypsinization and reseeding at a cell density of 1×10^4/cm^2 every 7 to 10 days. Emtricitabine (FTC) and tenofovir disoproxil fumarate (TDF) were kindly provided by the NIH AIDS Research & Reference Reagent program. During the 7-day exposure to the NRTIs, the pharmacologic inhibitors PD98059 (10 μM, Santa Cruz Biotechnologies), BI-D1870, GW5074, and SB203580 (10 μM, Enzo Biologicals) were added to the culture medium either during the final 48 hours or for the final 2 hours depending upon the experiment. During the 7-day exposure to NRTIs, Trolox (500 μM) and N-acetylcysteine (100 μM, Acros Organics) were added every other day. Mito-Q (20 nM) and TPP (20 nM) were kindly provided by Dr. Brett Kaufmann at the University of Pennsylvania School of Veterinary Medicine. Vector and mt-catalase adenoviruses (MOI's 25, 50, and 75) were purchased from Gene Transfer Vector Core from the University of Iowa.
Cell protein extracts were prepared by extracting with radioimmunoprecipitation assay (RIPA) buffer containing a protease inhibitor cocktail (Sigma-Aldrich) and phosphatase inhibitors, NaF and sodium orthovanadate. Protein concentration was quantified using a bicinchoninic acid (BCA) assay (Pierce Biotechnology). Western blot analysis was performed using 15 to 30 μg of protein extracts that were run on SDS-PAGE and transferred onto nitrocellulose (Biorad) membranes. Blots were incubated with antibodies specific for: beta-actin (Sigma-Aldrich), TFAm, parkin, p16, phospho(S82)HSP27, HSP27 (Santa Cruz Biotechnologies), p53, 21, catalase, MDM2 (EMD Millipore), VDAC, phospho(S235/236)-ribosomal protein S6, ribosomal protein S6, phospho(S166)-MDM2, phospho(5473)-AKT, AKT, beta-tubulin (Cell Signaling), p62 (Enzo Biologicals), IL-6 (NeoBiolab), lamin B1, PINK1, and Mitoprofile Total OXPHOS Cocktail (complex I-NDUFB8 subunit, CII-SDHB subunit, […]2 subunit, and CIV-mitochondrial COX1 subunit) (Abcam) according to manufacturers' instructions. Western blots were visualized using IRDye 680 and 800 LI-COR secondary antibodies on a LI-COR Odyssey using LI-COR Odyssey software version 3.0 (LI-COR Biosciences). For co-immunoprecipitation, cell protein extracts were prepared in HNTG buffer containing a protease inhibitor cocktail and quantified using BCA assay. Protein extracts at the concentration of 0.5 mg were pre-cleared with protein A/G beads (Santa Cruz Biologicals) for 30 minutes. After centrifugation at 2,000 rpm for 5 minutes at 4° C., the supernatant was incubated with the primary antibody at manufacturer's recommended concentration overnight at 4° C. An IgG antibody (Cell Signaling) was used as a non-specific control.

[2] = tested on: human cardiac fibroblasts; assay: Mitochondrial membrane potential, mass, superoxide and total ROS by flow cytometry; assay type: cell-based; conditions: control cultures (no rapamycin) treated with scavenger during NRTI exposure
Protocol: as §1, §2
Mitochondrial membrane potential was detected by incubating cells with 25 nM TMRE (Molecular Probes). Mitochondrial mass was evaluated by incubating the cells with 100 nM Mitotracker Green FM (Molecular Probes). Mitochondrial superoxide anion levels were detected by incubating the cells with 5 μM MitoSox Red (Molecular Probes). Total cellular levels of ROS were detected by incubating the cells with 10 μM 2′,7′-dichlorofluoroscein diacetate (DCF-DA; Sigma-Aldrich) in 1% fetal bovine serumsupplemented MEM and washing twice with Krebs Ringer phosphate glucose buffer (145 mM NaCl, 5.7 mM NaH2PO4, 4.86 mM KCL, 0.54 mM CaCl2), 1.22 mM MgSO4, and 5.5 mM glucose) following the incubation period. For the aforementioned assessments, incubation was performed at 37° C. in 5% CO2 for 30 minutes and cells were harvested in 2.5% trypsin-EDTA with serum-containing medium. Cells were immediately analyzed with a Guava EasyCyte Mini employing the Guava Express Plus program (Guava Technologies).

[3] = tested on: human cardiac fibroblasts; assay: Immunoblot of senescence markers (p53, p21, p16, lamin B1, IL-6); assay type: cell-based; conditions: ROS-reducing intervention during NRTI exposure, no rapamycin
Protocol: as §1, §2
Cell protein extracts were prepared by extracting with radioimmunoprecipitation assay (RIPA) buffer containing a protease inhibitor cocktail (Sigma-Aldrich) and phosphatase inhibitors, NaF and sodium orthovanadate. Protein concentration was quantified using a bicinchoninic acid (BCA) assay (Pierce Biotechnology). […] For co-immunoprecipitation, cell protein extracts were prepared in HNTG buffer containing a protease inhibitor cocktail and quantified using BCA assay. […]

[4] = tested on: human cardiac fibroblasts; assay: Senescence-associated beta-galactosidase detection; assay type: cell-based; conditions: ROS-reducing intervention during NRTI exposure, no rapamycin
Protocol: as §1
Assessment of SA-β-gal activity was performed by plating cells following respective treatments at low density (0.5×10^4/cm^2) to prevent false positive staining known to occur in high density cultures. […] Following incubation, cells were washed three times with PBS and at least 500 cells were counted for each sample in triplicates. Positive cells (blue cells) were expressed as a percentage of total cells.

[5] = tested on: human cardiac fibroblasts; assay: Mitochondrial respiration, Seahorse XF24 Bioanalyzer; assay type: cell-based; conditions: mito-Q during NRTI exposure
Protocol: Cell culture experiments utilizing NRTIs were of the following design. Cultures of either human lung or cardiac fibroblasts were cultivated according to standard culture protocols for these cells (Cristofalo, et al., Journal of Tissue Culture Methods 1980, 6:117-121). Parallel sets of cultures were maintained in normal growth media or in normal growth media with the addition of 1 nM rapamycin. Cultures were maintained with 1 nM rapamycin (Enzo Biologicals) for two weeks before exposure to NRTIs. […] Mitochondrial measurements, bioanalyzer measurements, immunoblotting for protein expression and phosphorylation status, and assays for senescence were performed at the end of this 7-day period. Mitochondrial function was measured using the XF cell mito stress test kit on a Seahorse XF24 Bioanalyzer (Seahorse Bioscience). Cells were seeded at a density of 15,000 cells per well in an XF24 microplate. Following acquisition, results were normalized based upon 10^6 cells counted using a Guava EasyCyte Mini (Millipore), where applicable. […] Respiration rates and proton leak were assessed as outlined in published methods (Hill, et al., Biological chemistry 2012, 393:1485-1512). Mitochondrial respiration was calculated based upon oxygen consumption rate measurements in triplicates from cells seeded in at least quadruplicates. Basal respiration represents the initial oxygen consumption rate measurements and maximal respiration represents the oxygen consumption rate measurements following FCCP addition. ATP-linked respiration is represented as the oligomycin-sensitive oxygen change to basal oxygen consumption rate. Proton leak represents the oligmycin insensitive oxygen consumption rate. […] All data was normalized to cell number by counting cells in each well at the completion of the mitochondrial assessments.

[6] = tested on: human fibroblasts; assay: Ethidium bromide mitochondrial stress in human fibroblasts; conditions: exposure to ethidium bromide
Description: Human fibroblasts were exposed to ethidium bromide for 7 days and cell viability measured at that time.

[7] = tested on: ribosomal S6 protein and MDM2; assay: Immunoblot of ribosomal S6 protein and MDM2 phosphorylation (mTORC1/p70S6K signaling); assay type: cell-based, human; remark: listed apart in the source
[8] = agent added to NRTI-exposed cardiac fibroblasts
[9] = replicative senescent cardiac fibroblasts
[10] = serum-free 48 hours, exposure 2 hours, 1 to 400 μM

## COC1=C(OC)C(=O)C(CCCCCCCCCC[P+](c2ccccc2)(c2ccccc2)c2ccccc2)=C(C)C1=O [Mito-Q]
[1]; [8]
  MDM2 phosphorylation in cells exposed to NRTIs: reduced
  ribosomal S6 phosphorylation in cells exposed to NRTIs: reduced
[2]
  mitochondrial ROS following exposure to NRTIs: ameliorated
[2]; listed as mito-Q
  mitochondrial ROS following exposure to NRTIs: lower level
[3]
  increase in senescence-associated proteins (p53, p21, p16) following NRTI exposure: ameliorated
[4]
  percentage of cells positive for SA-β-gal staining: reduced
[5]
  NRTI-induced increase in basal respiration, ATP-linked respiration and proton leak: partially alleviated
  maximal respiration: less affected

## CC[n+]1c(-c2ccccc2)c2cc(N)ccc2c2ccc(N)cc21 [ethidium bromide]
[6]
  mitochondrial network: destroyed

## C=C(C)[C@H]1Cc2c(ccc3c2O[C@@H]2COc4cc(OC)c(OC)cc4[C@@H]2C3=O)O1 [rotenone]
[7]; serum deprived cardiac fibroblasts, 16 hours
  concentration of sharp inhibition of S6 phosphorylation: 50 nM
[7]; serum deprived cardiac fibroblasts, 16 hours, 1 to 50 nM
  S6 phosphorylation at nanomolar concentrations: increased

## N#CC(=C(/N)Sc1ccccc1N)/C(C#N)=C(\N)Sc1ccccc1N [U0126]
[7]
  ribosomal S6 phosphorylation in cells exposed to NRTIs: some decrease

## CCc1cncnc1N1CCN(Cc2nc3ccc(C(F)(F)F)cc3[nH]2)CC1 [PF-4708671]
[1]; [8]
  MDM2 phosphorylation in cells exposed to NRTIs: inhibited
  ribosomal S6 phosphorylation in cells exposed to NRTIs: inhibited

## CC(C)CCN1c2nc(Nc3cc(F)c(O)c(F)c3)ncc2N(C)C(=O)C1C (stereo not drawn) [BI-D1870]
[1]; [8]
  ribosomal S6 phosphorylation in cells exposed to NRTIs: greatest impact
[7]; [9]
  phosphorylated MDM2 in senescent fibroblasts: reduced
  ribosomal S6 phosphorylation in senescent fibroblasts: reduced

## OO [hydrogen peroxide]
[7]; serum-free 48 hours, exposure 2 hours
  ribosomal S6 and MDM2 phosphorylation at the lower concentrations: increased
[7]; [10]
  concentration of maximal activation of ribosomal S6 and MDM2 phosphorylation: 50 µM
  concentrations at which ribosomal S6 and MDM2 phosphorylation are inhibited: above 100 μM

## C[S+]([O-])c1ccc(-c2nc(-c3ccncc3)c(-c3ccc(F)cc3)[nH]2)cc1 (stereo not drawn) [SB-203580]
[1]
  MDM2 phosphorylation in cells exposed to NRTIs: no effect
  ribosomal S6 phosphorylation in cells exposed to NRTIs: no effect

## O=C1Nc2ccc(I)cc2/C1=C/c1cc(Br)c(O)c(Br)c1 [GW5047]
[1]; [8]
  ribosomal S6 phosphorylation in cells exposed to NRTIs: some decrease

## COc1cc(C(C)=O)ccc1O [apocyanin]
[1]; [8]
  ribosomal S6 phosphorylation in cells exposed to NRTIs: did not prevent the increase
